# In patent publication US20250179078A1, “INHIBITORS OF NLRP3” (PTC THERAPEUTICS, INC., priority 2022, published 2025):
# Target: T1, NLRP3 (Homo sapiens, UniProt Q96P20)
# T1 construct: host or cells: THP-1 cells differentiated with PMA
# Experiment: IL-1β Secretion Assay (NLRP3-dependent IL1β secretion in THP1 cells)
# Type: cell-based
# Conditions: PMA-differentiated THP-1 cells; compounds incubated 20 h; 2.5 μM Nigericin 3 h; HTRF IL-1β readout; read-out: IC50 IL-1β Inhibition
# Outline: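 IL-1β in conditioned media, measured by HTRF after 3 h 2.5 μM nigericin stimulation, gave % inhibition fitted logistically for IC50. Before that, PMA-differentiated (100 ng/mL, 24 h) THP-1 cells were preincubated 20 h with 7 compound concentrations (3-fold serial, DMSO 1:200).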
# T1 sequence (Q96P20 whole entry): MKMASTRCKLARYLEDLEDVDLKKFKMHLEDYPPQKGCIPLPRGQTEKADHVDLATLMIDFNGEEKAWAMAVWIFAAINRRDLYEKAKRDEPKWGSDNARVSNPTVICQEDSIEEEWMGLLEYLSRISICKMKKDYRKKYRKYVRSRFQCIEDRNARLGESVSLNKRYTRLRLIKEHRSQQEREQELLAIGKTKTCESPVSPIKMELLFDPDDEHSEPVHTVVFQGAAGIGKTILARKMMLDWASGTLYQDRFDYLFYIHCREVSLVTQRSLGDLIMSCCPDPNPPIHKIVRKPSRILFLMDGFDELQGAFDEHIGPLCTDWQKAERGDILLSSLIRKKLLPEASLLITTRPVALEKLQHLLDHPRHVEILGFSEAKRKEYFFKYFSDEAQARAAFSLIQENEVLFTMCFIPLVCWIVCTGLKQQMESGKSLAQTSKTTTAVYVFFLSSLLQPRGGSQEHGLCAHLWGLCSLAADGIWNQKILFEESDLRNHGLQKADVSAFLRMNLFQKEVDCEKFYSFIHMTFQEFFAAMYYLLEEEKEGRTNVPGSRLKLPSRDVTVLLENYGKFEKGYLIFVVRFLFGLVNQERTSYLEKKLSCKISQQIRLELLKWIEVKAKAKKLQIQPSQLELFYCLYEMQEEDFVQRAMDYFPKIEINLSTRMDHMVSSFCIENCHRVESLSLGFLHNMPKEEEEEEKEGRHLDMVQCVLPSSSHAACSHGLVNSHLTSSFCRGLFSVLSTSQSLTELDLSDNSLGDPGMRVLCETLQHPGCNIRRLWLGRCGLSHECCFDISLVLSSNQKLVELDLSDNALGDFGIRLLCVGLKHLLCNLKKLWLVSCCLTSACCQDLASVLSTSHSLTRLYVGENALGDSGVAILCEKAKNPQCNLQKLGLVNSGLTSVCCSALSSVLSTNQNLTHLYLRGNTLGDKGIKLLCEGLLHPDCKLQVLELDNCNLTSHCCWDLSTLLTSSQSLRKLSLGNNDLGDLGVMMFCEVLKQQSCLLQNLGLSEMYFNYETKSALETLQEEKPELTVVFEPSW
row,SMILES,IC50
1,"COc1ccc(-c2nnc(NC[C@@H]3CCCO3)n3cccc23)c(OC(F)(F)F)c1 [Compound 76, 1-[4-methoxy-2-(trifluoromethoxy)phenyl]-N-{[(2S)-oxolan-2-yl]methyl}pyrrolo[1,2-d][1,2,4]triazin-4-amine]",0.01 to 0.1 µM
2,"CCN1C[C@H](F)C[C@@H](Nc2nnc(-c3ccc(C(F)(F)F)cc3OC(F)F)c3c(F)ccn23)C1 [Compound 5, 1-[2-(difluoromethoxy)-4-(trifluoromethyl)phenyl]-N-[(3R,5R)-1-ethyl-5-fluoropiperidin-3-yl]-8-fluoropyrrolo[1,2-d][1,2,4]triazin-4-amine]",0.001 to 0.01 µM
3,"COc1ccc(-c2nnc(N[C@H]3C[C@@](C)(O)C3)n3cccc23)c(C(F)(F)F)c1 [Compound 71, (1s,3s)-3-({1-[4-methoxy-2-(trifluoromethyl)phenyl]pyrrolo[1,2-d][1,2,4]triazin-4-yl}amino)-1-methylcyclobutan-1-ol]",0.001 to 0.01 µM
4,"Cc1ccc(-c2nnc(N[C@@H]3CCCN(C)C3)n3cccc23)c(OC(F)F)c1 [Compound 33, 1-[2-(difluoromethoxy)-4-methylphenyl]-N-[(3R)-1-methylpiperidin-3-yl]pyrrolo[1,2-d][1,2,4]triazin-4-amine]",0.001 to 0.01 µM
5,"COc1ccc(-c2nnc(N[C@H]3C[C@@](C)(O)C3)n3cc(C)cc23)c(OC(F)(F)F)c1 [Compound 108, (1s,3s)-3-({1-[4-methoxy-2-(trifluoromethoxy)phenyl]-7-methylpyrrolo[1,2-d][1,2,4]triazin-4-yl}amino)-1-methylcyclobutan-1-ol]",0.001 to 0.01 µM
6,"COc1ccc(-c2nnc(NCc3nnnn3C)n3cccc23)c(OC(F)(F)F)c1 [Compound 125, 1-[4-methoxy-2-(trifluoromethoxy)phenyl]-N-[(1-methyl-1H-tetrazol-5-yl)methyl]pyrrolo[1,2-d][1,2,4]triazin-4-amine]",0.1 to 0.3 µM
7,"Cc1ccc(-c2nnc(N[C@@H]3CCCN(CCO)C3)n3cccc23)c(OC(F)F)c1 [Compound 45, 2-[(3R)-3-({1-[2-(difluoromethoxy)-4-methylphenyl]pyrrolo[1,2-d][1,2,4]triazin-4-yl}amino)piperidin-1-yl]ethan-1-ol]",0.01 to 0.1 µM
8,"COc1ccc(-c2nnc(NCc3ncco3)n3cccc23)c(OC(F)(F)F)c1 [Compound 91, 1-[4-methoxy-2-(trifluoromethoxy)phenyl]-N-[(1,3-oxazol-2-yl)methyl]pyrrolo[1,2-d][1,2,4]triazin-4-amine]",0.01 to 0.1 µM
9,"COc1ccc(-c2nnc(NC[C@H]3CCCO3)n3cccc23)c(OC(F)(F)F)c1 [Compound 73, 1-[4-methoxy-2-(trifluoromethoxy)phenyl]-N-{[(2R)-oxolan-2-yl]methyl}pyrrolo[1,2-d][1,2,4]triazin-4-amine]",0.01 to 0.1 µM
10,"CN1CCC[C@@H](Nc2nnc(-c3ccc(OC(F)F)cc3OC(F)(F)F)c3cccn23)C1 [Compound 44, 1-[4-(difluoromethoxy)-2-(trifluoromethoxy)phenyl]-N-[(3R)-1-methylpiperidin-3-yl]pyrrolo[1,2-d][1,2,4]triazin-4-amine]",< 0.001 µM

# Next, values leading:
row,IC50,SMILES
1,0.01 to 0.1 µM,"O[C@@H]1CCCCC[C@H]1Nc1nnc(-c2ccc(C(F)(F)F)cc2CC(F)(F)F)c2cccn12.O[C@H]1CCCCC[C@@H]1Nc1nnc(-c2ccc(C(F)(F)F)cc2CC(F)(F)F)c2cccn12 [Compound 127, (1R,2R)-2-({1-[2-(2,2,2-trifluoroethyl)-4-(trifluoromethyl)phenyl]pyrrolo[1,2-d][1,2,4]triazin-4-yl}amino)cycloheptan-1-ol AND (1S,2S)-2-({1-[2-(2,2,2-trifluoroethyl)-4-(trifluoromethyl)phenyl]pyrrolo[1,2-d][1,2,4]triazin-4-yl}amino)cycloheptan-1-ol]"
2,0.01 to 0.1 µM,"COCC1CC(Nc2nnc(-c3ccc(C(F)(F)F)cc3OC(F)(F)F)c3cncn23)C1 (centres unmarked) [Compound 324, N-[3-(methoxymethyl)cyclobutyl]-1-[2-(trifluoromethoxy)-4-(trifluoromethyl)phenyl]imidazo[1,5-d][1,2,4]triazin-4-amine]"
3,< 0.001 µM,"CCN1CCC[C@@H](Nc2nnc(-c3ccc(C(F)(F)F)cc3C(F)(F)F)c3cncn23)C1 [Compound 271, 1-[2,4-bis(trifluoromethyl)phenyl]-N-[(3R)-1-ethylpiperidin-3-yl]imidazo[1,5-d][1,2,4]triazin-4-amine]"
4,0.001 to 0.01 µM,"C[C@]1(O)C[C@@H](Nc2nnc(-c3ccc(C4CC4)cc3OC(F)(F)F)c3cncn23)C1 [Compound 346, (1s,3s)-3-({1-[4-cyclopropyl-2-(trifluoromethoxy)phenyl]imidazo[1,5-d][1,2,4]triazin-4-yl}amino)-1-methylcyclobutan-1-ol]"
5,0.001 to 0.01 µM,"CN1C[C@H](F)C[C@@H](Nc2nnc(-c3ccc(Cl)cc3OC(F)F)c3cncn23)C1 [Compound 193, 1-[4-chloro-2-(difluoromethoxy)phenyl]-N-[(3R,5R)-5-fluoro-1-methylpiperidin-3-yl]imidazo[1,5-d][1,2,4]triazin-4-amine]"
6,0.001 to 0.01 µM,"COc1ccc(-c2nnc(N[C@@H]3CCCN(C)C3)n3cncc23)c(OCC(F)(F)F)c1 [Compound 304, 1-[4-methoxy-2-(2,2,2-trifluoroethoxy)phenyl]-N-[(3R)-1-methylpiperidin-3-yl]imidazo[1,5-d][1,2,4]triazin-4-amine]"
7,0.01 to 0.1 µM,"COc1ccc(-c2nnc(N[C@H]3C[C@@](C)(O)C3)n3cncc23)c(OC(F)F)c1 [Compound 226, (1s,3s)-3-({1-[2-(difluoromethoxy)-4-methoxyphenyl]imidazo[1,5-d][1,2,4]triazin-4-yl}amino)-1-methylcyclobutan-1-ol]"
8,0.01 to 0.1 µM,"COc1ccc(-c2nnc(NC3CCNC3=O)n3nc(C)cc23)c(CC(F)(F)F)c1 (centres unmarked) [Compound 386, 3-({4-[4-methoxy-2-(2,2,2-trifluoroethyl)phenyl]-2-methylpyrazolo[1,5-d][1,2,4]triazin-7-yl}amino)pyrrolidin-2-one]"
9,< 0.001 µM,"CN1CCC[C@@H](Nc2nnc(-c3ccc(OC(F)F)cc3OC(F)(F)F)c3cncn23)C1 [Compound 295, 1-[4-(difluoromethoxy)-2-(trifluoromethoxy)phenyl]-N-[(3R)-1-methylpiperidin-3-yl]imidazo[1,5-d][1,2,4]triazin-4-amine]"
10,0.01 to 0.1 µM,"COc1ccc(-c2nnc(N[C@@H]3CCC[C@H]3O)n3cncc23)c(OC(F)(F)F)c1 [Compound 221, (1R,2R)-2-({1-[4-methoxy-2-(trifluoromethoxy)phenyl]imidazo[1,5-d][1,2,4]triazin-4-yl}amino)cyclopentan-1-ol]"
11,< 0.001 µM,"CN1CCC[C@@H](Nc2nnc(-c3ccc(C(F)(F)F)cc3C(F)(F)F)c3cncn23)C1 [Compound 217, 1-[2,4-bis(trifluoromethyl)phenyl]-N-[(3R)-1-methylpiperidin-3-yl]imidazo[1,5-d][1,2,4]triazin-4-amine]"
12,0.1 to 0.3 µM,"COc1ccc(-c2nnc(N[C@H]3C[C@@](C)(O)C3)n3cncc23)c(C(F)(F)C(F)(F)F)c1 [Compound 315, (1s,3s)-3-({1-[4-methoxy-2-(pentafluoroethyl)phenyl]imidazo[1,5-d][1,2,4]triazin-4-yl}amino)-1-methylcyclobutan-1-ol]"
13,0.01 to 0.1 µM,"O[C@@H]1COCC[C@H]1Nc1nnc(-c2ccc(C(F)(F)F)cc2C2CC2)c2cncn12 [Compound 334, (3S,4R)-4-({1-[2-cyclopropyl-4-(trifluoromethyl)phenyl]imidazo[1,5-d][1,2,4]triazin-4-yl}amino)oxan-3-ol]"
